Test results as given in patent publication US6391614B1, “Auxiliary gene and protein of methicillin resistant bacteria and antagonists thereof” (priority 1995, dated 2002).
In brackets after ≈: the same amount, converted by molar mass. Where two headings read alike, the source gives them in different places.

Tests used:
SWTD3 (RUSA315/pGCSW-3) [1] = test: Standard disk susceptibility, transductant SWTD3; type: cell-based, Staphylococcus aureus; settings: SWTD3 versus recipient RUSA315; FIG. 5
Protocol: (§1) Susceptibility testing and population analysis. One colony of bacterial strain was inoculated into 5 ml of TSB (tryptic soy broth, Difco Laboratories) and incubated at 37° C. with 200 rpm rotation for overnight. Culture density (OD600) was adjusted to give a viable titer of 10^8 to 10^9 cfu/ml. Sterile swabs were dipped into the bacterial suspension and applied to TSA (tryptic soy agar, Difco Laboratories) plates without antibiotics, and 6-mm-diameter disks containing antibiotics were applied to the plates with a disk dispenser (BBL, Beckton-Dickinson and Company). The antibiotics used were as follows: […] of methicillin, 10 U of penicillin, 30 μg of cefazolin, 20 μg of ampicillin/sulbactam, 15 μg of erythromycin, 10 μg of gentamicin, 30 μg of tetracycline, 30 μg chloramphenicol, 5 μg of rifampin, and 5 μg of ciproflaxin (BBL, Becton Dickinson and Company). Diameters of inhibition zones were read after incubation at 37° C. for 24 h. To perform population analysis, aliquots of overnight cultures were spread onto TSA plates containing increasing concentrations of methicillin. CFU were determined after 48 h of incubation at 37° C. [de Lencastre et al., Antimicrob Agents Chemother. 35:632-639 (1991)].
(§2) Complementation analysis with plasmid pGCSW-3. Plasmid pGCSW-3 was transformed into S. aureus RN4220 (r-) by electroporation and the electro-transformant SWET3 was used as donor to introduce pGCSW-3 into recipients RUSA315 and RUSA12F.

SWTD5 (RUSA12F/pGCSW-3) = test: Standard disk susceptibility, transductant SWTD5; type: cell-based, Staphylococcus aureus; settings: SWTD5 versus recipient RUSA12F; FIG. 5
Protocol: as §1, §2

MRSA strain COL [2] = test: Methicillin MIC, parental highly methicillin resistant strain COL; type: cell-based, Staphylococcus aureus
Protocol: as §1

[3] = test system: mutant RUSA315 (femR315::Tn551); test: Methicillin MIC, Tn551 insertional mutant RUSA315; type: cell-based; settings: Staphylococcus aureus
Protocol: as §1

[4] = test system: Tn551 insertional (auxiliary) mutants; test: Methicillin MIC, Tn551 auxiliary mutants with intact mecA; type: cell-based; settings: Staphylococcus aureus, read-out: methicillin MIC
SWTD3 (RUSA315/pGCSW-3) [5] = test: Population analysis on methicillin-containing TSA plates, SWTD3; type: cell-based, Staphylococcus aureus; settings: SWTD3, data not shown
Protocol: as §1

MRSA strain COL [6] = settings: cited from earlier work
[7] = test system: mecA Tn551 transposon mutant; settings: Tn551 inserted into mecA; cited from earlier work
[8] = test system: staphylococci without the mecA gene; settings: bacteria without mecA; cited from earlier work
[9] = test system: Tn551 insertional (auxiliary) mutants; settings: cited from earlier work
four staphylococcal PBPs = settings: in vitro; cited from earlier work
strain COL = settings: peptidoglycan composition; cited from earlier work

## Cc1nnc(SCC2=C(C(=O)O)N3C(=O)[C@@H](NC(=O)Cn4cnnn4)[C@H]3SC2)s1 [cefazoline, cefazolin]
SWTD3 (RUSA315/pGCSW-3) [1]
  antimicrobial susceptibility (disk, inhibition zone): restored resistance
SWTD5 (RUSA12F/pGCSW-3)
  antimicrobial susceptibility (disk, inhibition zone): restored resistance

## COc1cccc(OC)c1C(=O)N[C@@H]1C(=O)N2[C@@H]1SC(C)(C)[C@@H]2C(=O)O [methicillin]
MRSA strain COL [2]; Staphylococcus aureus, MRSA, read-out: methicillin MIC
  MIC: 1600 µg/mL (≈ 4210 µM)
MRSA strain COL [2]; parental MRSA strain COL
  methicillin MIC: 1600 µg/mL
[3]
  MIC: 12 to 25 µg/mL (≈ 31.5 to 65.7 µM)
[3]; RUSA315, Tn551 insert Ω720, read-out: methicillin MIC
  MIC: 1.5 µg/mL (≈ 3.94 µM)
[4]
  MIC: 1.5 to 200 µg/mL (≈ 3.94 to 526 µM)
SWTD3 (RUSA315/pGCSW-3) [1]
  antimicrobial susceptibility (disk, inhibition zone): restored resistance
SWTD5 (RUSA12F/pGCSW-3)
  antimicrobial susceptibility (disk, inhibition zone): restored resistance
SWTD3 (RUSA315/pGCSW-3) [5]
  level of methicillin resistance by population analysis: same level of methicillin resistance as the parental Mc^r strain COL
MRSA strain COL [6]; highly resistant strain COL
  methicillin MIC: 1600 µg/mL
MRSA strain COL [6]; parental bacterium before Tn551 inactivation
  MIC: 1600 µg/mL (≈ 4210 µM)
[7]
  MIC: about 4 μg/ml
[8]
  methicillin MIC: 1 to 2 µg/mL
[9]; Tn551 mutants still producing normal amounts of PBP2A
  methicillin MIC: 3 µg/mL
[9]; inactivation of auxiliary genes, PBP2A present
  MIC: 3 mg methicillin per liter
Four staphylococcal PBPs
  methicillin concentration range within which all four normal PBPs become fully acylated: 5 to 10 mg/L
Strain COL
  critical concentration at which a new cell wall synthetic machinery, presumably PBP2A, takes over: about 5 mg/L

## ampicillin/sulbactam [ampicillinisulbactam]
SWTD3 (RUSA315/pGCSW-3) [1]
  antimicrobial susceptibility (disk, inhibition zone): restored resistance
SWTD5 (RUSA12F/pGCSW-3)
  antimicrobial susceptibility (disk, inhibition zone): restored resistance

## penicillin
SWTD3 (RUSA315/pGCSW-3) [1]
  antimicrobial susceptibility (disk, inhibition zone): restored resistance
SWTD5 (RUSA12F/pGCSW-3)
  antimicrobial susceptibility (disk, inhibition zone): restored resistance
